The text below walks through data of US5596018A, “Antiviral agents against aids-causing virus” (priority 1988, dated 1997).

A value given as a limit tells only on which side of the number the result lay.

The subject of data set [1] is HIV-1. Description: Anti-HIV-1 assay in HUT-78 cells, expression of viral antigen. To be noted: for SI: Selective index / EC50: HUT-78 cells; for EC50: Human immunodeficiency virus 1, HuT78, HIV-1 antigen expression, read-out: ED50 a: Antiviral 50% effective dose. It counts as cell-based.
In data set [2] the test system is HIV-1. Description: Anti-HIV-1 assay in MT-4 cells, inhibition of viral cytopathogenicity. To be noted: for EC50: Human immunodeficiency virus 1, MT4, HIV-1, cytopathogenic effect, read-out: ED50 a: Antiviral 50% effective dose; for EC50 / SI: Selective index: MT-4 cells. The data set is classed as cell-based. For orientation: Damage to the host cells serves as the signal in cytopathic effect assays.

A short description of a further data set: in vitro. To be noted: human. As to the method: Anti-HIV assays of fuchsinic acid were carried out in cultures of MT-4 and HUT-78 cells infected with AIDS-causing viruses such as HIV type 1 (HIV-1) and HIV type 2 (HIV-2), taking cytopathogenicity as a parameter of the inhibitory effect on replication of the viruses. The anti-HIV activity was also measured by monitoring the expression of viral antigen.

The test system of a further data set is HIV-2. The data set is described as follows: Anti-HIV-2 assay in MT-4 cells, inhibition of viral cytopathogenicity. The data set is classed as cell-based. As to conditions: Human immunodeficiency virus 2, MT4; HIV-2, MT-4 cells, cytopathogenic effect; read-out: 50% effective dose (ED50) for HIV-2.

One may read the CC50 as the concentration at which the toxic effect on the cells reaches its halfway point. A higher CC50 goes with lower toxicity to the cells. Consider `O=C(O)C1=CC(=C(c2ccc(O)c(C(=O)O)c2)c2ccc(O)c(C(=O)O)c2)C=CC1=O` [ATA, Aurintricarboxylic acid], for which the “SI: Selective index” value with HIV-1 [1] came to 19; in the data set with HIV-1 [2] it was 118. Also, the EC50 in the data set on HIV-1 [1] stood at 0.69 µM; in the data set with HIV-1 [2] it was 5 µM. Moreover, the CC50 in the data set “in vitro” (hut-78 cells) worked out at 13 µM; in “in vitro” (mt-4 cells), 590 µM.
On to `O=C1C=CC(=C(c2ccc(O)cc2)c2ccc(O)cc2)C=C1` [Aurin], for which the “SI: Selective index” value with HIV-1 [1] and in the data set on HIV-1 [2] was under 1 throughout. For the same compound, the values for the EC50 in the data set on HIV-1 [1] and in the data set with HIV-1 [2] were over 2.3 µM and over 2.6 µM, respectively. The values for the CC50 in the data set “in vitro” (hut-78 cells) and in “in vitro” (mt-4 cells) were 2.3 µM and 2.6 µM, respectively.
Turning to `Cc1cc(C(=C2C=CC(=N)C(S(=O)(=O)O)=C2)c2ccc(N)c(S(=O)(=O)O)c2)cc(S(=O)(=O)O)c1N` [Fuchsinic acid], the figures for the “SI: Selective index” value in the data set on HIV-1 [1] and with HIV-1 [2] were under 39 and under 74, respectively. For the same compound, the EC50 in the data set on HIV-1 [1] was determined as 16 µM; in the data set on HIV-1 [2], 42 µM; in the data set on HIV-2, 63 µM. In the data set on HIV-1 [1] (at 25 μM), the “Inhibition of HIV-1 antigen” value is “inhibited”. For the same compound, the “Inhibition of cytopathogenic effect (CPE)” value in the data set with HIV-1 [2] (HIV-1, MT-4 cells, at 125 μM (FIG. 1-A)) was “complete inhibition”. Moreover, the cytotoxic concentration (CC50) in “in vitro” (hut-78 cells) was over 625 µM; in the data set “in vitro” (mt-4 cells) it was over 3120 µM.
`Cc1ccc(C(=O)Nc2ccc(S(=O)(=O)O)c3cc(S(=O)(=O)O)cc(S(=O)(=O)O)c23)cc1NC(=O)c1cccc(NC(=O)Nc2cccc(C(=O)Nc3cc(C(=O)Nc4ccc(S(=O)(=O)O)c5cc(S(=O)(=O)O)cc(S(=O)(=O)O)c45)ccc3C)c2)c1` [Suramin]: the “SI: Selective index” value in the data set on HIV-1 [1] is recorded as 3.1; in the data set with HIV-1 [2], 20. Further, the values for the EC50 in the data set with HIV-1 [1] and with HIV-1 [2] were 18 µM and 32 µM, respectively. In addition, the 50% cytotoxic concentration (CC50) in “in vitro” (hut-78 cells) is 55 µM; in “in vitro” (mt-4 cells), 625 µM.
